# From patent US12589087B2, “Enantiomer selective action on neurotransmission” (The Board of Trustees of the Leland Stanford Junior …, priority 2021, dated 2026)
# What was measured:
# human glutaminase GLS1 = molecular target: T1, human glutaminase GLS1 (Homo sapiens, UniProt O94925); test: Catalysis of 2MeGln hydrolysis by GLS1 glutaminase; type: biochemical; settings: 10 mM substrate, 5 ng/mL enzyme, phosphate pH 7.4
# T1 construct: purchased Sigma SRP0516
# T1 sequence (O94925 55-669): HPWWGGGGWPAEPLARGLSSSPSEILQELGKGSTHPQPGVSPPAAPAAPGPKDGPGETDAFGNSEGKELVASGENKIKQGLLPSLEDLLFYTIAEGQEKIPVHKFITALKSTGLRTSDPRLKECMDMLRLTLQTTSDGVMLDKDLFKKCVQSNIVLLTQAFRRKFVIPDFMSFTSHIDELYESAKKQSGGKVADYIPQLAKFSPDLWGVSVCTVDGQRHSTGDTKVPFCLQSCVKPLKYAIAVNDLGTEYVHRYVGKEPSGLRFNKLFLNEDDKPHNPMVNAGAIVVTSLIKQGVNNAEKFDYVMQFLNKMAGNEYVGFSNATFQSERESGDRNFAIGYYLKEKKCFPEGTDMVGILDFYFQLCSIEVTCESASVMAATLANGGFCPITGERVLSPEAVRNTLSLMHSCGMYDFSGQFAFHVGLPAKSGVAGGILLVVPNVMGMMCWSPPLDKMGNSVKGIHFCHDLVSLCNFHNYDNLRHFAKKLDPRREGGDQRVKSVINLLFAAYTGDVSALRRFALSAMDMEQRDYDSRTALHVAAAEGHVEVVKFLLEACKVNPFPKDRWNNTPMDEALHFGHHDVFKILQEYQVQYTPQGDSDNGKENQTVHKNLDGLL
# Procedure: The procedure was adapted from an existing protocol. To a reaction mixture in a 1.5 mL microcentrifuge tube containing 10 mM rac-2MeGln or L-Gln-^13C2 in 100 mM phosphate pH 7.4 buffer made in 20% atom ^18O water, recombinant GLS1 (final concentration: 5 ng/mL) was added. The tubes were incubated in a preheated thermomixer at 37° C. and periodically shaken at 600 rpm (30 s on, 30 s off). 5 μL aliquots were collected in triplicate every 5 min and immediately diluted with 195 μL of cold 60% ACN containing 10 μM Glu-d5 and Gln-d5 as internal standards in a 96 well plate. After collecting all samples, the plate was shaken at 1000 rpm for 5 min at room temperature, and then stored at −80° C. Before analysis the plate was thawed and 10 μL aliquots of the extracted reaction mixtures were diluted with 190 μL of 90% acetonitrile.
# The quantification of the newly formed 2MeGlu in the presence of the preexisting trace amounts was performed in the following way. Peak area ratio of Glu-^13C2 to Glu-^13C2^18O was calculated in all samples containing Glu-^13C2. The mean ratio value was then applied to calculate the hypothetical peak area of the newly formed 2MeGlu based on the directly measured 2MeGlu-^18O peak area. The ratio of the newly formed 2MeGlu peak area and the total 2MeGlu peak area was applied to calculate the concentration of the newly formed 2MeGlu from the total 2MeGlu concentration determined directly using the calibration curve.
# [1] = test system: murine primary cerebral cortical neuron cultures; test: Neuronal transport and metabolism of 2MeGln; type: cell-based, mouse; settings: 1 mM substrate, 2 h, 37° C., neurons
# Procedure: The procedure was adapted from an existing protocol. Wild-type (WT) C57BL/6J mating pairs were housed according to Stanford IACUC protocol. On day P0, pups were euthanized and brains dissected in cold HBSS (without Ca^2+ or Mg^2+). The forebrain was microdissected to isolate the cortex and hippocampus. These brain regions were minced in cold HBSS before trypsinization at 37° C. for 9 minutes, followed by trituration, through 2 glass polished Pasteur pipettes. The resulting cell suspension was passed through a 100 μm filter to isolate single cells which were sedimented at 250 g for 5 minutes. The cell pellet was then resuspended in complete Neural Basal Media (Neural Basal Media+Glutamax+B-27 Plus Supplement+Pen/Strep)+10% FBS, counted using a hemocytometer and plated at 1×10^6 cells per mL into a 24 well plate (1 mL per well) coated with poly-D-lysine and laminin. Cultures were grown at 37° C./5% CO2 in a tissue culture incubator. Media was exchanged 50% on day 1 in vitro (1 DIV) with fresh complete Neural Basal Media without FBS and thereafter every other day with the same media. On 3 DIV the media was spiked with 2 μM AraC to limit glial growth. On 10 DIV the media was completely replaced with 500 μL Neural Basal Media containing B-27 Plus Supplement+Pen/Strep without added Glutamax but instead containing 1 mM substrate at 37° C. for 2 h. […]
# [2] = Metabolism in synaptosomes (GABA shunt, glutamate-glutamine cycle); type: in vitro ADME; settings: mouse, mouse cerebral synaptosomes; synaptosomes preincubated with 100 μM, normal KRP buffer, 37° C.; read-out: synaptosomal concentration, estimated half life
# Procedure: To each tube, a 5 μL aliquot of a test compound solution (final concentration 100 μM) in Buffer KRP or Buffer KRP alone were added. The samples were incubated for 15 min at 37° C., briefly chilled on ice, and then immediately centrifuged and washed twice by resuspension-centrifugation with Buffer S (0.5 mL). The pellets were then resuspended in Buffer KRP (500 μL). Samples were then immediately centrifuged or incubated for 5, 10, 15, 20, 25 or 30 min at 37° C. and then centrifuged and washed by resuspension-centrifugation with Buffer S (0.5 mL). Resulting pellets were resuspended in 170 μL of 0.1% aqueous formic acid, mixed with 330 μL of ACN.
# To each tube, 5 μL of 2MeGlu solution (final concentration 100 μM) in Buffer KRP or Buffer KRP alone were added. The samples were incubated for 15 min at 37° C., briefly chilled on ice, and then immediately centrifuged and washed twice by resuspension-centrifugation with Buffer S (0.5 mL). The pellets were then resuspended in Buffer KRP (200 μL). Samples were then kept on ice or incubated for 10, 20, 30, 40 or 50 min at 37° C. and then chilled on ice. Then all samples were centrifuged, 200 μL of supernatants were collected, and the pellets were suspended in 200 μL of 80% ACN. Supernatants and pellet suspensions were diluted with 250 μL of ACN and 50 μL of 10 μM d5-Glu in water as internal standard.
# [3] = test system: mouse hippocampal slice cultures; test: Kainic acid neurodegeneration in hippocampal slice cultures (propidium iodide); type: cell-based
# Procedure: We employed a standard technique of ex vivo experimentation to determine the efficacy of 2MeGlu, 2MeGln, and 4APA to prevent neurodegeneration. Mouse hippocampal slice cultures were prepared and then exposed to one of the three test compounds at either 5 or 50 μM for one hour. Then media was changed to contain either 2 or 5 μM kanic acid (KA) for 24 hr. […] After 24, the amount of neurodegeneration was assayed with propidium iodide staining. Increasing the dose of KA led to greater neurodegeneration at 5 μM than at 2 μM.
Compound,apparent reaction rate of GLS1 hydrolysis (human glutaminase GLS1) [µM/min],"intracellular [1,2-13C]Gln, lower than 2MeGln in corresponding samples [1] [fold]",half-life at 100 μM [2] [min],"reduction of neurodegeneration ([3]; 50 μM compound, lower dose of KA (2 μM))","neuroprotection at the higher dose of KA ([3]; 5 or 50 μM compound, 5 μM KA)"
"NC(=O)CC[C@H](N)C(=O)O [Gln, L-glutamine, reference compound]",65,2,,,
"CC(N)(CCC(=O)O)C(=O)O (racemic) [rac-2MeGlu, rac-2-Methylglutamic acid]",,,21,approximately 50%,Neither dose of 2MeGlu or 2MeGln was neuroprotective
